The text below walks through data of ChEMBL document CHEMBL5550217, “Discovery of gem-Dimethyl-hydroxymethylpyridine Derivatives as Potent Non-nucleoside RSV Polymerase Inhibitors” (J Med Chem, 2024).

Series [1] in a line: Inhibition of RSV RNA polymerase assessed as RNA products using […] template by SPA primer extension enzymatic assay. Details: species or system Respiratory syncytial virus.
For series [2], the system named is Respiratory syncytial virus. Put plainly: Antiviral activity against Respiratory syncytial virus (RSV)-A2-eGFP infected in human HeLa cells assessed as eGFP expression measured after 3 days by RSV Cell-based infection assay. Type of series: functional, organism-based. Particulars: 72 h.
Series [3] can be described thus: Cytotoxicity against human HeLa cells measured after 3 days by ATPlite kit assay. To be noted: time 3 day. Type of series: toxicity, cell-based.
Series [4] is described as follows: Metabolic stability in human hepatocytes assessed as intrinsic clearance per 10^6 cells at 1 uM measured upto 180 mins by LC-MS/MS analysis. Type of series: ADME, cell-based, Hepatocyte. Particulars: read-out: CLH.
Series [5] is described as follows: Metabolic stability in rat hepatocytes assessed as intrinsic clearance per 10^6 cells at 1 uM measured upto 180 mins by LC-MS/MS analysis. It is filed as ADME, cell-based, Hepatocyte. To be noted: read-out: CLH.
Series [6] in a line: Clearance in Sprague-Dawley rat at 1.25 mg/kg, iv. It is filed as ADME, organism-based. Particulars: in vivo.
The subject of series [7] is Respiratory syncytial virus. Put plainly: Antiviral activity against Respiratory syncytial virus (RSV) infected in human APC-126 cells assessed as replicon by measuring protein adjusted effective concentration in the presence of 40% human serum measured after 3 days by Renilla Glo assay. Type of series: functional, organism-based. Particulars: 72 h. Background: In antiviral work, replicon cells carry a viral genome segment that copies itself.

pEC50, pIC50: −log10 of the molar value.

Consider `COc1cc(C(=O)NC[C@](O)(c2cc3c(c(-c4ccc(F)cc4)n2)OC[C@]3(C)NS(C)(=O)=O)C(F)(F)F)ccc1OC[C@@H](C)O`, for which, in series [1], the pIC50 was 8.32. Also, in series [2], the pEC50 is 7.92. In series [3], this compound showed a CC50 at 72 h of 54300 nM. The figures for the hepatocyte CLint at 1 µM in series [4] and in series [5] were 11 µL/min/1e6 cells and 28 µL/min/1e6 cells, respectively. In series [6], this compound returned a clearance of 34 mL/min/kg.
As to `COc1cc(C(=O)NC[C@](O)(c2cc(C(C)(C)O)c(F)c(-c3ccc(F)cc3)n2)C(F)(F)F)cc2cc(F)nnc12`, the negative logarithm of the IC50 (pIC50) in series [1] is 8.88. Moreover, the pEC50 is 8.17 in series [2] and 6.48 in series [7]. Also, it took 17300 nM to reach half-maximal cytotoxicity in series [3] (CC50 at 72 h). For the same compound, the results for the hepatocyte CLint at 1 µM in series [4] and in series [5] were less than 1.9 µL/min/1e6 cells and 93 µL/min/1e6 cells, respectively.
Take `COc1cc(C(=O)NC[C@](O)(c2nc(-c3ccc(F)cc3)c(Cl)c(C(C)(C)O)c2F)C(F)(F)F)cc2cc(C)cnc12`: in series [1], the pIC50 is 8.54. Also, the pEC50 in series [2] was 8.32. In series [3], this compound yielded a CC50 at 72 h of 45800 nM.
On to `COc1nc2c(OC)cc(C(=O)NC[C@](O)(c3cc(C(C)(C)O)c(F)c(-c4ccc(F)cc4)n3)C(F)(F)F)cc2cc1C`, for which the pIC50 in series [1] is 8.82. In addition, the negative-log EC50 (pEC50) in series [2] is 7.47; in series [7], 5.77. This compound also registered a CC50 at 72 h in series [3] of 31000 nM.
As for `CC(=O)N[C@@]1(C)COc2c1cc([C@@](O)(CNC(=O)c1cc(OC3CC3)c3ncc(F)cc3c1)C(F)(F)F)nc2-c1ccc(F)cc1`, the pIC50 in series [1] was 8.44. Further, in series [2], the pEC50 was 7.66. Also, the CC50 at 72 h in series [3] was 14000 nM. Moreover, the hepatocyte CLint at 1 µM in series [4] was less than 1.9 µL/min/1e6 cells. In addition, in series [6], the clearance was 2.51 mL/min/kg.
With `COc1cc(C(=O)NC[C@](O)(c2cc3c(c(-c4ccc(F)cc4)n2)OC[C@]3(C)NS(C)(=O)=O)C(F)(F)F)cc2cc(C)cnc12`, the pIC50 in series [1] is 9.44. Besides, in series [2], the pEC50 is 8.89. In addition, the CC50 at 72 h in series [3] came to 11400 nM. Also, the hepatocyte CLint at 1 µM in series [4] was 3.7 µL/min/1e6 cells.
On to `COc1cc(C(=O)NC[C@](O)(c2cc3c(c(-c4ccc(F)cc4)n2)OC[C@]3(C)NC(C)=O)C(F)(F)F)cc2cc(C)cnc12`, for which the pIC50 in series [1] is 9.08. For the same compound, the pEC50 in series [2] was 8.57. The same compound showed a CC50 at 72 h in series [3] of 14500 nM. Also, the hepatocyte CLint at 1 µM in series [4] came to 4.9 µL/min/1e6 cells; in series [5], 54 µL/min/1e6 cells. Also, the clearance in series [6] stood at 13.6 mL/min/kg.
Take `COc1cc(C(=O)NC[C@](O)(c2cc(C(C)(C)O)c(F)c(-c3ccc(F)cc3)n2)C(F)(F)F)cc2cc(C3CC3)nnc12`: in series [1], the pIC50 was 8.93. Further, the results for the negative-log EC50 (pEC50) in series [2] and in series [7] were 8.59 and 6.65, respectively. This compound also gave a CC50 at 72 h in series [3] of 8800 nM. For the same compound, in series [4], the hepatocyte CLint at 1 µM is less than 1.2 µL/min/1e6 cells.
Regarding `COc1cc(C(=O)NC[C@](O)(c2nc(-c3ccc(F)cc3)c(F)c(C(C)(C)O)c2F)C(F)(F)F)cc2cc(C)cnc12`, the pIC50 in series [1] is 9.60. For the same compound, the pEC50 in series [2] is 8.59. This compound also registered a CC50 at 72 h in series [3] of 43000 nM. The hepatocyte CLint at 1 µM in series [4] is 9.7 µL/min/1e6 cells.
Turning to `COc1cc(C(=O)NC[C@](O)(c2cc(C(C)(C)O)c(F)c(-c3ccc(F)cc3)n2)C(F)(F)F)cc2cc(C(F)F)nnc12`, the pIC50 in series [1] is 9.40. Besides, the pEC50 was 8.46 in series [2] and 6.72 in series [7]. This compound returned a CC50 at 72 h in series [3] of 18300 nM. Further, the hepatocyte CLint at 1 µM was less than 1.9 µL/min/1e6 cells in series [4] and 6.9 µL/min/1e6 cells in series [5].
In the case of `COc1cc(C(=O)NC[C@](O)(c2cc(C(C)(C)O)c(F)c(-c3ccc(F)cc3)n2)C(F)(F)F)cc2cc(Cl)nnc12`, the pIC50 in series [1] was 9.66. The pEC50 in series [2] was 9.00; in series [7], 6.96. It took 9900 nM to reach half-maximal cytotoxicity in series [3] (CC50 at 72 h). In addition, the results for the hepatocyte CLint at 1 µM in series [4] and in series [5] were less than 1.2 µL/min/1e6 cells and 13 µL/min/1e6 cells, respectively.
Take `COc1cc(C(=O)NC[C@](O)(c2cc(C(C)(C)O)c(F)c(-c3ccc(F)cc3)n2)C(F)(F)F)cc2cc(C)cnc12`: in series [1], the pIC50 is 9.38. Moreover, the negative-log EC50 (pEC50) in series [2] was 8.35; in series [7], 7.37. This compound also displayed a CC50 at 72 h in series [3] of 14600 nM. In addition, the figures for the hepatocyte CLint at 1 µM in series [4] and in series [5] were 6.6 µL/min/1e6 cells and 28 µL/min/1e6 cells, respectively.
For the compound `COc1cc(C(=O)NC[C@](O)(c2cc3c(c(-c4ccc(F)cc4)n2)OC[C@]3(C)NC(C)=O)C(F)(F)F)cc2cccnc12`, in series [1], the pIC50 was 8.37. The pEC50 in series [2] was 7.82. Also, the CC50 at 72 h in series [3] amounted to 12700 nM. Moreover, the figures for the hepatocyte CLint at 1 µM in series [4] and in series [5] were 8.8 µL/min/1e6 cells and 11 µL/min/1e6 cells, respectively. For the same compound, the clearance in series [6] turned out to be 19 mL/min/kg.
`COc1cc(C(=O)NC[C@](O)(c2cc(C(C)(C)O)c(F)c(-c3ccc(F)cc3)n2)C(F)(F)F)cc2cc(OC(F)F)nnc12`: the negative-log IC50 (pIC50) in series [1] was 9.04. Further, the results for the negative-log EC50 (pEC50) in series [2] and in series [7] were 8.29 and 5.91, respectively. This compound also gave a CC50 at 72 h in series [3] of 8900 nM.
`COc1cc(C(=O)NC[C@](O)(c2cc3c(c(-c4ccc(F)cc4)n2)OC[C@]3(C)NS(C)(=O)=O)C(F)(F)F)cc2cccnc12`: the pIC50 in series [1] is 9.15. In addition, the pEC50 in series [2] is 8.28. Besides, in series [3], the CC50 at 72 h is 10200 nM. Moreover, the hepatocyte CLint at 1 µM in series [4] was 3 µL/min/1e6 cells; in series [5], 73 µL/min/1e6 cells. The same compound gave a clearance in series [6] of 60.9 mL/min/kg.
As for `COc1cc(C(=O)NC[C@](O)(c2cc(C(C)(C)O)c(F)c(-c3ccc(F)cc3)n2)C(F)(F)F)cc2cc(C)c(F)nc12`, in series [1], the pIC50 is 8.96. Further, the pEC50 is 8.42 in series [2] and 7.32 in series [7]. In series [3], this compound yielded a CC50 at 72 h of 13100 nM. For the same compound, the figures for the hepatocyte CLint at 1 µM in series [4] and in series [5] were 4.3 µL/min/1e6 cells and 57 µL/min/1e6 cells, respectively.
Regarding `CC(=O)N[C@@]1(C)COc2c1cc([C@@](O)(CNC(=O)c1cc(OC3CC3)c3ncccc3c1)C(F)(F)F)nc2-c1ccc(F)cc1`, the pIC50 in series [1] is 8.43. Also, the pEC50 in series [2] was 7.72. This compound also registered a CC50 at 72 h in series [3] of 46800 nM. Moreover, the results for the hepatocyte CLint at 1 µM in series [4] and in series [5] were less than 1.9 µL/min/1e6 cells and 11 µL/min/1e6 cells, respectively. In series [6], this compound showed a clearance of 6.13 mL/min/kg.
On to `COc1cc(C(=O)NC[C@](O)(c2cc(C(C)(C)O)c(Cl)c(-c3ccc(F)cc3)n2)C(F)(F)F)cc2cc(C)cnc12`, for which the pIC50 in series [1] was 8.85. In addition, the pEC50 in series [2] was 8.77. This compound gave a cytotoxic concentration (CC50) at 72 h in series [3] of 21700 nM. The hepatocyte CLint at 1 µM in series [4] was found to be 4.3 µL/min/1e6 cells.
Regarding `COc1cc(C(=O)NC[C@](O)(c2cc3c(c(-c4ccc(F)cc4)n2)OC[C@]3(C)NC(C)=O)C(F)(F)F)ccc1OC[C@@H](C)O`, in series [1], the pIC50 is 7.64. In addition, the pEC50 in series [2] was 7.85. Further, it took 73200 nM to reach half-maximal cytotoxicity in series [3] (CC50 at 72 h). Further, the hepatocyte CLint at 1 µM in series [5] is 13 µL/min/1e6 cells.
With `COc1cc(C(=O)NC[C@](O)(c2cc(C(C)(C)O)c(F)c(-c3ccc(F)cc3)n2)C(F)(F)F)cc2cccnc12`, the pIC50 in series [1] is 9.20. The pEC50 is 7.96 in series [2] and 6.51 in series [7]. This compound registered a CC50 at 72 h in series [3] of 16000 nM. For the same compound, the hepatocyte CLint at 1 µM in series [4] worked out at 4.1 µL/min/1e6 cells; in series [5], 120 µL/min/1e6 cells.
Consider `CCc1cc2cc(C(=O)NC[C@](O)(c3cc(C(C)(C)O)c(F)c(-c4ccc(F)cc4)n3)C(F)(F)F)cc(OC)c2nn1`, for which the pIC50 in series [1] is 9.43. Besides, the pEC50 in series [2] was 8.49; in series [7], 7.39. In series [3], this compound had a CC50 at 72 h of 21800 nM. Moreover, the hepatocyte CLint at 1 µM in series [4] turned out to be 14 µL/min/1e6 cells.

By pIC50 is commonly meant the negative decadic logarithm of the IC50, by convention in mol/L. The pEC50 is the EC50 on a negative log10 scale, so that one unit is a factor of ten. What is called CC50 is the concentration that lowers cell viability or growth by half. Low values mean greater toxicity to the cells, high ones lower toxicity to the cells. As a reminder, the clearance is the volume of plasma or blood freed of the substance per unit of time.
